# Patent US20260042762A1 (Kymera Therapeutics, Inc., priority 2018, published 2026)
# Molecular target: T1, MerTK (Homo sapiens, UniProt Q12866)
# T1 construct: endogenous in cells; host or cells: Jurkat cells
# T1 sequence (Q12866 21-999): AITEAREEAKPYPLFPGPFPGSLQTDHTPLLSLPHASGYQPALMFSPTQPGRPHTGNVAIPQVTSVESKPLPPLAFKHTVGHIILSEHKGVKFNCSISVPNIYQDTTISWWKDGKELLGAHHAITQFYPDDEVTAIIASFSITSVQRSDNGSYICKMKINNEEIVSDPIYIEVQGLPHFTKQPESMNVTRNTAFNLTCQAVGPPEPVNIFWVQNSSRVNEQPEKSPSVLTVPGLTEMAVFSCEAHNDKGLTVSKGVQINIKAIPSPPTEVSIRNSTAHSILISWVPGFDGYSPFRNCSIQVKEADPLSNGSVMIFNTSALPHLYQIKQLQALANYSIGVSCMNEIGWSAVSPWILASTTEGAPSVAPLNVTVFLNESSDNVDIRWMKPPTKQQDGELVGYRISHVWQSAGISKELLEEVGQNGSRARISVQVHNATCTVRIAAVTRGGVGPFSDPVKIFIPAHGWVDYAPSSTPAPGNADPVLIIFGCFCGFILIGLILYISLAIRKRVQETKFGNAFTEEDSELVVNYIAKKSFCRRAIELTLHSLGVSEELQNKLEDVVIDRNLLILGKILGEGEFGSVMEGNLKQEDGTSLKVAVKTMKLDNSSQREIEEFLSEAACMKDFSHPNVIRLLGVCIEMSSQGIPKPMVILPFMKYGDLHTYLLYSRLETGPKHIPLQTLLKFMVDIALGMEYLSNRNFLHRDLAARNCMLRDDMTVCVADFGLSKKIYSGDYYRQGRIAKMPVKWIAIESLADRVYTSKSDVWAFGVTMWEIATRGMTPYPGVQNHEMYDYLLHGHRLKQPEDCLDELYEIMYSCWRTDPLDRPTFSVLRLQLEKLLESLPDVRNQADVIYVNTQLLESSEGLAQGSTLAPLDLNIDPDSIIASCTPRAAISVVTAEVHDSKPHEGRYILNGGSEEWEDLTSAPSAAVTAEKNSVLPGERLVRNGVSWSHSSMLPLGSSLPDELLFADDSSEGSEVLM
# Experiment: MerTk degradation in Jurkat cells (Western blot)
# Format: cell-based
# Details: 0.001-1 μM, 4 hour-incubation at 37° C.
# Summary of the method: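 Jurkat cells treated 4 h at 37 °C with compound at 0.001-1 μM final. RIPA lysates quantified by BCA, then MerTK probed by Western blot against actin loading control with IR-dye secondaries and Odyssey imaging.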
row,Structure (SMILES),Jurkat Max % MerTK Degradation
1,C[C@H](CC(F)(F)F)Nc1ncc2c(-c3ccc(CN4CCN(CCCO[C@H]5CCN(Cc6ccc7c(c6)n(C)c(=O)n7C6CCC(=O)NC6=O)C5)CC4)cc3)cn([C@H]3CC[C@H](O)CC3)c2n1 (stereo partly shown) [I-198],A (maximum MerTK degradation greater than 50%)

# Same assay, conditions: Jurkat, 4 h, 0.001-1 μM, 4 hour-incubation at 37° C., read-out: Jurkat Max % MerTK Degradation
row,Dmax [%],Structure (SMILES)
1,> 50,"CCC[C@H](C)Nc1ncc2c(-c3ccc(CN4CCN(CCCOC5CCN(Cc6ccc7c(c6)n(C)c(=O)n7C6CCC(=O)NC6=O)CC5)CC4)cc3)cn([C@H]3CC[C@H](O)CC3)c2n1 (stereo partly drawn) [I-189, 3-(3-methyl-2-oxo-5-[[4-(3-[4-[(4-[2-[(2S)-pentan-2-ylamino]-7-[trans-4-hydroxycyclohexyl]pyrrolo[2,3-d]pyrimidin-5-yl]phenyl)methyl]piperazin-1-yl]propoxy)piperidin-1-y1]methyl]-1,3-benzodiazol-1-y1)piperidine-2,6-dione; formic acid]"
2,> 50,"C[C@H](CC(F)(F)F)Nc1ncc2c(-c3ccc(CN4CCN(CCCOC5CCN(Cc6ccc7c(c6)n(C)c(=O)n7C6CCC(=O)NC6=O)CC5)CC4)cc3)cn([C@H]3CC[C@H](O)CC3)c2n1 (stereo partly drawn) [I-196, 3-(3-methyl-2-oxo-5-[[4-(3-[4-[(4-[7-[trans-4-hydroxycyclohexyl]-2-[[(2R)-4,4,4-trifluorobutan-2-yl]amino]pyrrolo[2,3-d]pyrimidin-5-y1]phenyl)methyl]piperazin-1-yl]propoxy)piperidin-1-yl]methyl]-1,3-benzodiazol-1-yl)piperidine-2,6-dione]"
3,> 50,"C[C@@H](CC(F)(F)F)Nc1ncc2c(-c3ccc(CN4CCN(CCCOC5CCN(Cc6ccc7c(c6)n(C)c(=O)n7C6CCC(=O)NC6=O)CC5)CC4)cc3)cn([C@H]3CC[C@H](O)CC3)c2n1 (stereo partly drawn) [I-197, 3-(3-methyl-2-oxo-5-[[4-(3-[4-[(4-[7-[trans-4-hydroxycyclohexyl]-2-[[(2S)-4,4,4-trifluorobutan-2-yl]amino]pyrrolo[2,3-d]pyrimidin-5-yl]phenyl)methyl]piperazin-1-yl]propoxy)piperidin-1-yl]methyl]-1,3-benzodiazol-1-y1)piperidine-2,6-dione]"
4,20 to 50,"C[C@@H](CC(F)(F)F)Nc1ncc2c(-c3ccc(CN4CCN(CCCO[C@H]5CCN(Cc6ccc7c(c6)n(C)c(=O)n7C6CCC(=O)NC6=O)C5)CC4)cc3)cn([C@H]3CC[C@H](O)CC3)c2n1 (stereo partly drawn) [I-199, 3-(3-methyl-2-oxo-5-[[(3S)-3-(3-[4-[(4-[7-[trans-4-hydroxycyclohexy1]-2-[[(2S)-4,4,4-trifluorobutan-2-yl]amino]pyrrolo[2,3-d]pyrimidin-5-yl]phenyl)methyl]piperazin-1-yl]propoxy)pyrrolidin-1-yl]methyl]-1,3-benzodiazol-1-yl)piperidine-2,6-dione]"
5,> 50,"C[C@H](CC(F)(F)F)Nc1ncc2c(-c3ccc(CN4CCN(CCCOC5CN(Cc6ccc7c(c6)n(C)c(=O)n7C6CCC(=O)NC6=O)C5)CC4)cc3)cn([C@H]3CC[C@H](O)CC3)c2n1 (stereo partly drawn) [I-200, trans-3-(3-methyl-2-oxo-5-[[3-(3-[4-[(4-[7-[4-hydroxycyclohexyl]-2-[[(2R)-4,4,4-trifluorobutan-2-yl]amino]pyrrolo[2,3-d]pyrimidin-5-yl]phenyl)methyl]piperazin-1-yl]propoxy)azetidin-1-y1]methyl]-1,3-benzodiazol-1-y1)piperidine-2,6-dione; tris(formic acid)]"
6,20 to 50,"C[C@@H](CC(F)(F)F)Nc1ncc2c(-c3ccc(CN4CCN(CCCOC5CN(Cc6ccc7c(c6)n(C)c(=O)n7C6CCC(=O)NC6=O)C5)CC4)cc3)cn([C@H]3CC[C@H](O)CC3)c2n1 (stereo partly drawn) [I-201, 3-(3-methyl-2-oxo-5-[[3-(3-[4-[(4-[7-[trans-4-hydroxycyclohexy1]-2-[[(2S)-4,4,4-trifluorobutan-2-yl]amino]pyrrolo[2,3-d]pyrimidin-5-y1]phenyl)methyl]piperazin-1-yl]propoxy)azetidin-1-yl]methy1]-1,3-benzodiazol-1-yl)piperidine-2,6-dione; tris(formic acid)]"

# The next lines start with the compound.
row,Structure (SMILES),Dmax [%]
1,"CCC[C@H](C)Nc1ncc2c(-c3ccc(CN4CCN(C5CC(OCCc6ccc7c(c6)n(C)c(=O)n7C6CCC(=O)NC6=O)C5)CC4)cc3)cn([C@H]3CC[C@@](C)(O)CC3)c2n1 (stereo partly drawn) [I-187, 3-[3-methyl-2-oxo-5-[2-(3-[4-[(4-[2-[(2S)-pentan-2-ylamino]-7-[cis-4-hydroxy-4-methylcyclohexyl]pyrrolo[2,3-d]pyrimidin-5-yl]phenyl)methyl]piperazin-1-yl]cyclobutoxy)ethyl]-1,3-benzodiazol-1-yl]piperidine-2,6-dione; formic acid]",> 50
2,"CCC[C@H](C)Nc1ncc2c(-c3ccc(CN4CCN(C5CC(OCCc6ccc7c(c6)n(C)c(=O)n7C6CCC(=O)NC6=O)C5)CC4)cc3)cn([C@H]3CC[C@](C)(O)CC3)c2n1 (stereo partly drawn) [I-188, 3-[3-methyl-2-oxo-5-[2-(3-[4-[(4-[2-[(2S)-pentan-2-ylamino]-7-[trans-4-hydroxy-4-methylcyclohexyl]pyrrolo[2,3-d]pyrimidin-5-yl]phenyl)methyl]piperazin-1-yl]cyclobutoxy)ethyl]-1,3-benzodiazol-1-yl]piperidine-2,6-dione; formic acid]",> 50
3,Cc1ncsc1-c1ccc(CNC(=O)[C@@H]2C[C@@H](O)CN2C(=O)[C@@H](NC(=O)C2(F)CC2)C(C)(C)C)c(OCCOCCOCCOCCN2CCN(Cc3ccc(-c4cn([C@H]5CC[C@H](O)CC5)c5nc(NCCC(F)(F)F)ncc45)cc3)CC2)c1 [I-190],> 50
4,"Cc1cc(CNCc2ccc(C(=O)N3CC(C4CCN(Cc5ccc(-c6cn([C@H]7CC[C@H](O)CC7)c7nc(NCCC(F)(F)F)ncc67)cc5)CC4)C3)cc2)ccc1-c1ccc2nn(CC3CC3)cc2c1 [I-191, trans-4-[5-[4-([4-[1-(4-[[([4-[2-(cyclopropylmethyl)indazol-5-yl]-3-methylphenyl]methyl)amino]methyl]benzoyl)azetidin-3-yl]piperidin-1-yl]methyl)phenyl]-2-[(3,3,3-trifluoropropyl)amino]pyrrolo[2,3-d]pyrimidin-7-yl]cyclohexan-1-ol]",< 20
5,"C[C@H](CC(F)(F)F)Nc1ncc2c(-c3ccc(CN4CCN(C5CC(OCCc6ccc7c(c6)n(C)c(=O)n7C6CCC(=O)NC6=O)C5)CC4)cc3)cn([C@H]3CC[C@H](O)CC3)c2n1 (stereo partly drawn) [I-194, 3-[3-methyl-2-oxo-5-[2-(3-[4-[(4-[7-[trans-4-hydroxycyclohexy1]-2-[[(2R)-4,4,4-trifluorobutan-2-yl]amino]pyrrolo[2,3-d]pyrimidin-5-yl]phenyl)methyl]piperazin-1-yl]cyclobutoxy)ethyl]-1,3-benzodiazol-1-yl]piperidine-2,6-dione]",> 50
6,"C[C@@H](CC(F)(F)F)Nc1ncc2c(-c3ccc(CN4CCN(C5CC(OCCc6ccc7c(c6)n(C)c(=O)n7C6CCC(=O)NC6=O)C5)CC4)cc3)cn([C@H]3CC[C@H](O)CC3)c2n1 (stereo partly drawn) [I-195, 3-[3-methyl-2-oxo-5-[2-(3-[4-[(4-[7-[trans-4-hydroxycyclohexy1]-2-[[(2S)-4,4,4-trifluorobutan-2-yl]amino]pyrrolo[2,3-d]pyrimidin-5-yl]phenyl)methyl]piperazin-1-yl]cyclobutoxy)ethyl]-1,3-benzodiazol-1-yl]piperidine-2,6-dione]",20 to 50
